Source: PubChem BioAssay (NCI)
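Grown in 96-well plates, cells were treated for 48 hours with each compound at five concentrations. Insufficient inhibition: endpoint recorded as highest concentration tested. GI50 is the concentration that inhibits growth by half. TGI: concentration producing complete growth inhibition.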 Where a SMILES comes first, the peptide text is derived from it. [ ]: non-standard residue; d: D form. The star is where a group is joined. β3hI = CC[CH](C)[CH](N)CC(=O)O; Octanoyl = CCCCCCCC(=O)*; Aib = CC(C)(N)C(=O)O; tBu = CC(C)(C)*

Assays:
Test in all cases: NCI anticancer screen, dose series, 48 h
DU-145 prostate = system: DU-145 prostate
SNB-19 CNS = system: SNB-19 CNS
HL-60(TB) leukemia = system: HL-60(TB) leukemia
MCF7 breast = system: MCF7 breast
SF-295 CNS = system: SF-295 CNS
SK-MEL-5 melanoma = system: SK-MEL-5 melanoma
HCT-15 colon = system: HCT-15 colon
LOX IMVI melanoma = system: LOX IMVI melanoma
MOLT-4 leukemia = system: MOLT-4 leukemia
MALME-3M melanoma = system: MALME-3M melanoma
NCI/ADR-RES ovarian = system: NCI/ADR-RES ovarian
MDA-N = system: MDA-N
PC-3 prostate = system: PC-3 prostate
SK-MEL-2 melanoma = system: SK-MEL-2 melanoma
NCI-H522 lung = system: NCI-H522 lung
ACHN renal = system: ACHN renal
COLO 205 colon = system: COLO 205 colon
UO-31 renal = system: UO-31 renal

SMILES	TGI (DU-145 prostate) [µM]	TGI (SNB-19 CNS) [µM]	TGI (HL-60(TB) leukemia) [µM]	TGI (MCF7 breast) [µM]	TGI (SF-295 CNS) [µM]	TGI (SK-MEL-5 melanoma) [µM]	TGI (HCT-15 colon) [µM]	TGI (LOX IMVI melanoma) [µM]	TGI (MOLT-4 leukemia) [µM]	TGI (MALME-3M melanoma) [µM]	TGI (NCI/ADR-RES ovarian) [µM]	TGI (MDA-N) [µM]	TGI (PC-3 prostate) [µM]	TGI (SK-MEL-2 melanoma) [µM]	TGI (NCI-H522 lung) [µM]	TGI (ACHN renal) [µM]	TGI (COLO 205 colon) [µM]	TGI (UO-31 renal) [µM]	GI50 (SK-MEL-2 melanoma) [µM]	GI50 (HL-60(TB) leukemia) [µM]
CN(C1=NCCO1)c1cccc2c1CCCC2	> 10	> 10	> 10	> 10	> 10	4.84	> 10	5.27	> 10	9.3	> 10	> 10	8.53	> 10	> 10	8.09	3.4			
CCOC(=O)CCC(NC(=O)c1ccc(OCc2nc3ccccc3n3cccc23)cc1)C(=O)OCC (stereo not drawn)	> 100	> 100	> 100	> 100	> 100	> 100	> 100	> 100	> 100	> 100	> 100	> 100	> 100	> 100	69.3	> 100	> 100	> 100		
O=C(Cc1ccc(Cl)c(Cl)c1)N(CCc1ccc(Cl)c(Cl)c1)CCN1CCCC1	4.59	4.9	3.35	3.27	3.84	3.41	3.7		2.98	3.16	4.73	3.15	3.77	3.36	3.3	3.28	3.38	3.46		
CC1(C)CN=C(Nc2cccc(C(F)(F)F)c2)S1	> 100	> 100	> 100	> 100	> 100	> 100	> 100	> 100	> 100	> 100	> 100	> 100	> 100	> 100	> 100	> 100	> 100	> 100		
COc1ccc2[nH]c3c(c2c1)COc1ccccc1C3=O	> 100	> 100	> 100	> 100	> 100	> 100	> 100	> 100	> 100	> 100	> 100	> 100	> 100	> 100	> 100	> 100	> 100	> 100		
c1cncc(-c2ncc3cccnc3n2)c1	> 100	> 100	> 100	> 100	> 100	> 100	> 100	> 100	> 100	> 100	> 100	> 100	> 100	> 100	> 100	> 100	> 100	> 100		
CC(C)NC(=O)OCc1c(COC(=O)NC(C)C)n(C)c2c1ccc1ccccc12	14.4	3.74	22.4	1.88	17.2	6.63	3.09	2.6	> 25.4	2.24	7.39	4.22	17.1	4.09	0.298	2.82	3.83	4.09		
N#CC(c1cc2c(cc1Br)OCO2)N1CCOCC1 (stereo not drawn)	> 100	> 100	25.7	> 100	> 100	> 100		> 100	> 100	> 100	> 100	> 100	71.2		> 100	> 100	> 100	> 100		
CCOP(=O)(C=C=C(C)C)OCC	> 100	> 100	> 100	> 100	> 100	> 100	> 100	> 100		> 100	> 100	> 100	> 100	> 100	> 100	> 100	> 100			
O=C(CCc1cccc(O)c1)NCCc1ccc(O)cc1	> 100	> 100	> 100	> 100	> 100	> 100	> 100	> 100	> 100	> 100	> 100	> 100	> 100	> 100	> 100	> 100	> 100	> 100		
CNC(=O)CCCN(C)C(=O)CCCCC(=O)N(C)C	> 100	> 100	> 100	> 100	> 100	> 100	> 100	> 100	> 100	> 100	> 100	> 100	> 100	> 100	> 100	> 100	> 100	> 100		
C=C1c2nc3ccccc3n2C=C(c2ccccc2)N1c1ccccc1	> 100	> 100	> 100	> 100	> 100	83.3	51.9	> 100	> 100	> 100	> 100	> 100	> 100	> 100	> 100	> 100	> 100	> 100		
CN(CCCCN(C)CCc1ccc(Cl)c(Cl)c1)CCCCN1CCCC1	8.92	5.23	3.97	2.84	3.54	3.19	3.73	1.66		3.46	13.4	2.64	4.52	3.12	2.32	3.64	3.8	0.96		
O=[N+]([O-])O.[Ga]	> 10000	> 10000	1780	6200	1240	1310	5780	> 8240	2130	1320	> 10000	> 10000	> 10000	3270	4490	> 10000	> 9550	> 7740	325	
CCN(CC)CCCNc1nc2ccccc2c2[nH]c3ccc(OC)cc3c12	8.44	4.25	3.02	2.87	2.39	3.12	3.05	2.9	1.69	3.41	2.92	2.99	2.73	3.16	2.88	> 10	2.59	> 10		
NS(=O)(=O)c1ccc(CNc2nc(-c3cccs3)nc3ccc(I)cc23)cc1	30.3	39.7	> 100	16.1	38	27	28.9	29.3	81.8	27.9	77.6	41.9	53.3	32.9	28.2	58.3	29.9	4.45	17.8	29.9
Oc1c(C2=N[C@H]3CCCC[C@@H]3N2)ccc2ccccc12	> 100	> 96.4	> 100	> 100		> 100	> 100	> 100	> 100	> 100	> 93.9	> 100	> 100	> 100	> 100	> 100	> 100	> 100		
CCC(C)C(CC(=O)N1CCCC1C(=O)NC(C(=O)NC(C(=O)NCC(=O)NC(CC(N)=O)C(=O)NC(C(=O)NC(C(=O)NC(CCCCN)C(N)=O)C(C)CC)C(C)CC)C(C)C)C(C)CC)NC(=O)C(N)C(C)CC (stereo not drawn) (H-I[β3hI]PIVGNIIK-NH2; configuration not given here)	> 50	> 50	> 50	> 50	> 50	> 50	> 50	> 50	> 50	> 50	> 50	> 50	> 50	> 50	> 50	> 50	> 50	> 50		
CC(C)n1c2c([n+](C)c1/C=C/c1ccccc1)C(=O)c1ccccc1C2=O	0.948	0.784	1.14	0.214	2.52	0.252	23.9	0.971	0.745	0.248	> 100	0.686	0.726	0.48	0.15	10.9	0.0993	10.1		
COC(=O)C1(Cc2ccccc2)Cc2ccc3c(c2C1=O)CCC3 (stereo not drawn)	> 100	> 100	> 63.3	> 100	> 100	49.9	> 100	> 64	69.5	25.4	> 100	> 86.4	> 100	41.5	75.5	> 100	> 62.5	> 100		
CCOC(=O)NC(NC(C)CC)(C(F)(F)F)C(F)(F)F (stereo not drawn)	> 100	> 100	> 100	> 100	> 100	> 100	> 100	> 100	> 100	> 100	> 100	> 100	> 100	> 100	> 100	> 100	> 100	> 100		
Cn1c2ccccc2c(=NNc2ccccc2C(=O)O)c2ccccc21	> 100	> 100	44.5	30.5	82.6	28	27.5	25.6	> 100	43.7	60.8	46.4	42.3	43.7	33.3	48.2	34.1	64.5		
COC(=O)CCn1cnc2c(SC)ncnc21	> 100	> 100	> 100	> 100	> 100	> 100		> 100	> 100	> 100	> 100	> 100	> 100		> 100	> 100	> 100	> 100		
O=C1CC2(CCNCC2)C(=O)N1N1CCCC1	> 100	> 100	> 100	> 100	> 100	> 100	> 100	> 100	> 100	> 100	> 100	> 100	> 100		> 100	> 100	> 100	> 100		
O=[N+]([O-])c1cc(-[n+]2cc([O-])on2)ccc1F	25.4	21.3	49	29.4	31.5	28.4	52.8	31.1		29	52	30.7	35.1	31	22.2	30.7	35.2	13.1		
CCCCCCCC(=O)NC(C)(C)C(=O)NC(COC(C)(C)C)C(=O)NC(CC(C)C)C(=O)NC(C)(C)C(=O)NC(COC(C)(C)C)C(=O)NC(COC(C)(C)C)C(=O)NC(CC(C)C)C(=O)NC(C)(C)C(=O)NC(COC(C)(C)C)C(=O)NC(C(=O)NC(CC(C)C)C(=O)OC)C(C)CC (stereo not drawn) (Octanoyl-[Aib]S(tBu)L[Aib]S(tBu)S(tBu)L[Aib]S(tBu)IL-OMe; configuration not given here)	> 25	> 25	15.6	17	> 25	16.2	> 25	10.6	> 25		> 25	> 25	9.36	13.5	> 25	20.8	15.8	> 25		
